Each block holds one compound with its values, some of them ahead of it. Activity calls are given as the source filed them. The rule behind the calls is not given here.
Assays:
[1] = AUC in mouse xenografted with human MIAPaCa2 cells at 9.1 mg/kg, iv administered as single dose; type: ADME, organism-based; design: dose 9.1 mg/kg; settings: in vivo
MIA PaCa-2 [2] = assay: Antitumor activity against human MIAPaCa2 cells xenografted in mouse assessed as change in tumor volume at 10 mg/kg, iv administered twice per week for 28 days and measured at day 53 by Caliper method relative to control; type: functional; settings: time 28 day
MIA PaCa-2 [3] = assay: Antitumor activity against human MIAPaCa2 cells xenografted in mouse assessed as change in tumor volume at 15 mg/kg, iv administered twice per week for 28 days and measured at day 28 by Caliper method relative to control; type: functional; settings: time 28 day
[4] = Cmax in mouse xenografted with human MIAPaCa2 cells at 14 mg/kg, iv administered as single dose; type: ADME, organism-based; design: route intravenous, dose 14 mg/kg; settings: in vivo
MIA PaCa-2 [5] = assay: Antitumor activity against human MIAPaCa2 cells xenografted in mouse assessed as change in tumor volume at 10 mg/kg, iv administered twice per week for 28 days and measured at day 28 by Caliper method relative to control; type: functional; settings: time 28 day
[6] = Clearance in mouse xenografted with human MIAPaCa2 cells at 14 mg/kg, iv administered as single dose; type: ADME, organism-based; settings: in vivo
CAPAN-1 = assay: Antiproliferative activity against human Capan1 cells assessed as growth inhibition after 96 hrs by SRB assay; type: functional
[7] = Cmax in mouse xenografted with human MIAPaCa2 cells at 9.1 mg/kg, iv administered as single dose; type: ADME, organism-based; design: route intravenous, dose 9.1 mg/kg; settings: in vivo
[8] = Half life in mouse xenografted with human MIAPaCa2 cells at 9.1 mg/kg, iv administered as single dose; type: ADME, organism-based; settings: in vivo
MIA PaCa-2 [9] = assay: Antiproliferative activity against human MIAPaCa2 cells assessed as growth inhibition after 96 hrs by SRB assay; type: functional
Mus musculus [10] = assay: Down regulation of MAPK11 expression in mouse xenografted with human MIAPaCa2 cells at 15 mg/kg, iv administered twice per week for 28 days and measured on day 28 by Western blot analysis; type: functional, organism-based; settings: time 28.0 day
[11] = Apparent volume of distribution in mouse xenografted with human MIAPaCa2 cells at 9.1 mg/kg, iv administered as single dose; type: ADME, organism-based; settings: in vivo, read-out: Vz
Mus musculus [12] = assay: Effect on hTERT expression in mouse xenografted with human MIAPaCa2 cells at 15 mg/kg, iv administered twice per week for 28 days and measured on day 28 by Western blot analysis; type: functional, organism-based; settings: time 28.0 day
[13] = Half life in mouse xenografted with human MIAPaCa2 cells at 14 mg/kg, iv administered as single dose; type: ADME, organism-based; settings: in vivo
MIA PaCa-2 [14] = assay: Antitumor activity against human MIAPaCa2 cells xenografted in mouse assessed as change in tumor volume at 15 mg/kg, iv administered twice per week for 28 days and measured at day 53 by Caliper method relative to control; type: functional; settings: time 28 day
MIA PaCa-2 [15] = assay: Antitumor activity against human MIAPaCa2 cells xenografted in mouse assessed as mean tumor volume at 10 mg/kg, iv administered twice per week for 28 days and measured at day 28 by Caliper method (reference value: 0.45 +/- 0.18 cm3); type: functional; settings: time 28 day
[16] = Apparent volume of distribution in mouse xenografted with human MIAPaCa2 cells at 14 mg/kg, iv administered as single dose; type: ADME, organism-based; settings: in vivo, read-out: Vz
Mus musculus [17] = assay: Down regulation of MAPK11 expression in mouse xenografted with human MIAPaCa2 cells at 10 mg/kg, iv administered twice per week for 28 days and measured on day 28 by Western blot analysis; type: functional, organism-based; settings: time 28.0 day
BXPC-3 = assay: Antiproliferative activity against human BxPC3 cells assessed as growth inhibition after 96 hrs by SRB assay; type: functional
MIA PaCa-2 [18] = assay: Antitumor activity against human MIAPaCa2 cells xenografted in mouse assessed as mean tumor volume at 10 mg/kg, iv administered twice per week for 28 days and measured at day 53 by Caliper method (reference value: 1.60 +/- 0.44 cm3); type: functional; settings: time 28 day
MIA PaCa-2 [19] = assay: Antitumor activity against human MIAPaCa2 cells xenografted in mouse assessed as change in tumor volume at 1 mg/kg, iv administered twice per week for 28 days and measured at day 53 by Caliper method relative to control; type: functional; settings: time 28 day
[20] = Volume of distribution at steady state in mouse xenografted with human MIAPaCa2 cells at 14 mg/kg, iv administered as single dose; type: ADME, organism-based; settings: in vivo, read-out: Vdss
[21] = Clearance in mouse xenografted with human MIAPaCa2 cells at 9.1 mg/kg, iv administered as single dose; type: ADME, organism-based; settings: in vivo
[22] = AUC (infinity) in mouse xenografted with human MIAPaCa2 cells at 9.1 mg/kg, iv administered as single dose; type: ADME, organism-based; design: route intravenous, time infinity, dose 9.1 mg/kg; settings: in vivo
[23] = Volume of distribution at steady state in mouse xenografted with human MIAPaCa2 cells at 9.1 mg/kg, iv administered as single dose; type: ADME, organism-based; settings: in vivo, read-out: Vdss
[24] = AUC in mouse xenografted with human MIAPaCa2 cells at 14 mg/kg, iv administered as single dose; type: ADME, organism-based; design: dose 14 mg/kg; settings: in vivo
Mus musculus [25] = assay: Effect on hTERT expression in mouse xenografted with human MIAPaCa2 cells at 10 mg/kg, iv administered twice per week for 28 days and measured on day 28 by Western blot analysis; type: functional, organism-based; settings: time 28.0 day
[26] = AUC (infinity) in mouse xenografted with human MIAPaCa2 cells at 14 mg/kg, iv administered as single dose; type: ADME, organism-based; design: route intravenous, time infinity, dose 14 mg/kg; settings: in vivo
PANC-1 = assay: Antiproliferative activity against human PANC1 cells assessed as growth inhibition after 96 hrs by SRB assay; type: functional
Quadruplex DNA = assay: Binding affinity to G4 quadruplex DNA in human PANC1 cells assessed as increase in number of BG4 foci at 400 nM after 24 hrs by immunofluorescence based confocal microscopic analysis; type: cell-based; settings: PANC-1
MIA PaCa-2 [27] = assay: Antiproliferative activity against human MIAPaCa2 cells assessed as growth inhibition after 96 hrs by MTS assay relative to SOP1812; type: functional

AUC [1]: 11100 ng·h/mL
Cmax [4]: 22100 ng/mL
clearance [6]: 8.1 mL/min/kg
Cmax [7]: 4520 ng/mL
half-life [8]: 33 h
GI50 (MIA PaCa-2 [9]): 9 nM
Vd [11]: 27.8 L/kg
half-life [13]: 16 h
Vd [16]: 11.8 L/kg
GI50 (BXPC-3): 15.5 nM
Vd [20]: 2.2 L/kg
clearance [21]: 10.9 mL/min/kg
AUC(0-inf) [22]: 14500 ng·h/mL
Vd [23]: 5.2 L/kg
AUC [24]: 30600 ng·h/mL
AUC(0-inf) [26]: 34400 ng·h/mL
GI50 (PANC-1): 15.6 nM
SMILES: O=C1c2ccc3c4c(c(NCCN5CCCC5)cc(c24)C(=O)N1CCCN1CCOCC1)C(=O)N(CCCN1CCOCC1)C3=O
Activity (MIA PaCa-2 [2]): -60.6%
Activity (MIA PaCa-2 [3]): -73.3%
Activity (MIA PaCa-2 [5]): -64.4%
GI50 (CAPAN-1): 26.5 nM
inhibition (Mus musculus [10]): Active
Activity (Mus musculus [12]): inactive
Activity (MIA PaCa-2 [14]): -78.1%
Activity (MIA PaCa-2 [15]): 0.16 cm3
inhibition (Mus musculus [17]): inactive
Activity (MIA PaCa-2 [18]): 0.63 cm3
Activity (MIA PaCa-2 [19]): -90.6%
Activity (Mus musculus [25]): inactive
Activity (Quadruplex DNA): Active

SMILES: O=C1c2cc(-c3ccccc3CN3CCCC3)c3c4c(cc(NCCN5CCCC5)c(c24)C(=O)N1CCCN1CCOCC1)C(=O)N(CCCN1CCOCC1)C3=O
growth inhibition (GI) (MIA PaCa-2 [27]): 2.7%

SMILES: O=C1c2cc(-c3ccc(CN4CCOCC4)cc3)c3c4c(cc(NCCN5CCCC5)c(c24)C(=O)N1CCCN1CCOCC1)C(=O)N(CCCN1CCOCC1)C3=O
growth inhibition (GI) (MIA PaCa-2 [27]): 19.2%

SMILES: O=C1c2cc(-c3cccc(CN4CCCC4)c3)c3c4c(cc(NCCN5CCCC5)c(c24)C(=O)N1CCCN1CCOCC1)C(=O)N(CCCN1CCOCC1)C3=O
growth inhibition (GI) (MIA PaCa-2 [27]): 19.7%

SMILES: O=C1c2cc(-c3ccc(CN4CCCCCC4)cc3)c3c4c(cc(NCCN5CCCC5)c(c24)C(=O)N1CCCN1CCOCC1)C(=O)N(CCCN1CCOCC1)C3=O
growth inhibition (GI) (MIA PaCa-2 [27]): 30.7%

SMILES: O=C1c2cc(-c3ccc(CNC4CCCC4)cc3)c3c4c(cc(NCCN5CCCC5)c(c24)C(=O)N1CCCN1CCOCC1)C(=O)N(CCCN1CCOCC1)C3=O
growth inhibition (GI) (MIA PaCa-2 [27]): 54.9%

SMILES: O=C1c2cc(-c3ccc(CN4CCCCC4)cc3)c3c4c(cc(NCCN5CCCC5)c(c24)C(=O)N1CCCN1CCOCC1)C(=O)N(CCCN1CCOCC1)C3=O
growth inhibition (GI) (MIA PaCa-2 [27]): 32%

SMILES: O=C(c1ccc(-c2cc3c4c(c(NCCN5CCCC5)cc5c4c2C(=O)N(CCCN2CCOCC2)C5=O)C(=O)N(CCCN2CCOCC2)C3=O)cc1)N1CCCC1
growth inhibition (GI) (MIA PaCa-2 [27]): 10.9%

SMILES: CCN(CC)Cc1ccc(-c2cc3c4c(c(NCCN5CCCC5)cc5c4c2C(=O)N(CCCN2CCOCC2)C5=O)C(=O)N(CCCN2CCOCC2)C3=O)cc1
growth inhibition (GI) (MIA PaCa-2 [27]): 31.1%

SMILES: O=C1c2cc(-c3ccc(N4CCCC4)cc3)c3c4c(cc(NCCN5CCCC5)c(c24)C(=O)N1CCCN1CCOCC1)C(=O)N(CCCN1CCOCC1)C3=O
growth inhibition (GI) (MIA PaCa-2 [27]): 1.9%

SMILES: CN1CCN(Cc2ccc(-c3cc4c5c(c(NCCN6CCCC6)cc6c5c3C(=O)N(CCCN3CCOCC3)C6=O)C(=O)N(CCCN3CCOCC3)C4=O)cc2)CC1
growth inhibition (GI) (MIA PaCa-2 [27]): 20.2%

SMILES: Nc1ccn([C@@H]2O[C@H](CO)[C@@H](O)C2(F)F)c(=O)n1 [GEMCITABINE]
Activity (MIA PaCa-2 [3]): -71.1%
inhibition (Mus musculus [10]): inactive
Activity (Mus musculus [12]): inactive
Activity (MIA PaCa-2 [14]): -75.6%
